Measured values reported in EP0813872A1, “Berberine derivates for inhibiting hsp27 production” (Kureha Chemical Industry Co., Ltd., priority 1996, dated 1997).
Structures can show the parent of a compound that is named as a salt.

Test system: HSP27
Test: Inhibition of HSP27 production in heat-shocked human cancer cell lines (Western blotting)
Type: cell-based
Settings: Western blot, 20 µM, control showed a single band
Procedure: The following various human cancer cell lines were cultured under 5% CO2, at 37 °C, except for the heat shock treatment period. The lung cancer cell line H69 (ATCC HTB 119), the gastric cancer cell line KATO III (ATCC HTB 103), the colon cancer cell line COLO 205 (ATCC CCL 222), and the prostate cancer cell line DU145 (ATCC HTB 81) were cultured in an RPMI1640 medium containing 10% inactivated fetal bovine serum (hereinafter referred to as FBS).
The uterine cancer cell line HeLa S3 (ATCC CCL 2.2) was cultured in an MEM medium containing 10% inactivated FBS.
The neuroblastoma cell line SK-N-MC (ATCC HTB 10) was cultured in an MEM medium containing non-essential amino acids (L-alanine = 8.9 mg/l, L-asparagine·H2O = 15.0 mg/l, L-aspartic acid = 13.3 mg/l, L-glutamic acid = 14.7 mg/l, glycine = 7.5 mg/l, L-proline = 11.5 mg/l and L-serine = 10.5 mg/l) and 10% inactivated FBS.
The berberine hydrochloride of the formula (III) (the final concentration = 20 µM: Matsuura Yakugyo) was added to each medium of the above human cancer cell lines 2 days after the inoculation. After the berberine hydrochloride treatment for 24 hours, a heat shock was applied at 45 °C for 15 minutes, and the cells were then cultured at 37 °C overnight. The control tests were carried out by performing the above procedures except that the berberine hydrochloride was not added.
The cells treated in the above (2) were homogenized, and the amounts of HSP27 produced were measured by the Western blotting method.
The cells treated in the above (2) were washed with phosphate buffered physiological saline [composition: KC1 = 0.2 g/l, KH2PO4 = 0.2 g/l, NaCl = 8 g/1, Na2HPO4 (anhydrous) = 1.15 g/l: hereinafter referred to as PBS(-): COSMO BIO CO. Catalogue No. 320-01], and 1 ml of lysis buffer [1.0% NP-40, 0.15 M sodium chloride, 50 mM Tris-HCl (pH 8.0), 5 mM-EDTA, 2 mM-N-ethylmaleimide, 2 mM phenylmethylsulfonyl fluoride, 2 µg/ml leupeptin, and 2 µg/ml pepstatin] was added. The whole was allowed to stand for 20 minutes on ice, and then centrifuged at 4 °C and 12000 rpm for 20 minutes. The resulting supernatant (10 µl) was added to 790 µl of PBS(-), and then 200 µl of a protein assay dye reagent solution (Dye Reagent Concentrate: Bio-Rad Laboratories, Catalogue No. 500-0006) was added. The whole was allowed to stand at room temperature for 5 minutes, and the absorbance at 595 nm was measured to determine the amounts of proteins.
For the SDS-polyacrylamide gel electrophoresis (SDS-PAGE) of the samples, the protein concentration of which were measured, aliquots containing the same amount of protein were loaded onto the gel. The SDS-PAGE was performed according to the Laemmli method (Laemmli, […]). After the electrophoresis, the blotting and then blocking were carried out. More particularly, the gel was brought into contact with a 0.45 µm nitrocellulose membrane (Schleicher & Schuell, Catalogue No. 401196) at room temperature and 100 V, using a protein-transferring apparatus (Trans-Blot Electrophoretic Transfer Cell: Bio-Rad), and blotting was carried out for 3 hours. The blotting buffer used was prepared by adding methyl alcohol to Tris-glycine buffer (pH 8.5) consisting of 0.025 M Tris and 0.192 M glycine (Tris Gly Running and Blotting Buffer; Enprotech, Mass., USA; Catalogue No. SA100034), so that the concentration of methyl alcohol became 20%. After blotting, the nitrocellulose membrane was incubated in a 10% skimmed milk-PBS(-) solution at room temperature for 30 minutes, to block non-specific bindings.
After blocking, the first antibody reaction was carried out on the nitrocellulose membrane, using a screener blotter (Sanplatec), and the anti-human-HSP27 mouse monoclonal antibody (StressGen, Victoria, B.C., Canada, Catalogue No. SPA-800). […]

Compound: COc1ccc2cc3[n+](cc2c1OC)CCc1cc2c(cc1-3)OCO2 [berberine hydrochloride]
- band of the molecular weight of approximately 27 kDa (colon cancer cell line COLO 205): faint in comparison with the control tests
- band of the molecular weight of approximately 27 kDa (gastric cancer cell line KATO III): faint in comparison with the control tests
- band of the molecular weight of approximately 27 kDa (lung cancer cell line H69): no band of the molecular weight of approximately 27 kDa was detected
- band of the molecular weight of approximately 27 kDa (neuroblastoma cell line SK-N-MC): no band of the molecular weight of approximately 27 kDa was detected
- band of the molecular weight of approximately 27 kDa (prostate cancer cell line DU145): no band of the molecular weight of approximately 27 kDa was detected
- band of the molecular weight of approximately 27 kDa (uterine cancer cell line HeLa S3): no band of the molecular weight of approximately 27 kDa was detected
